The values that follow come from patent US20210145801A1, “THERAPY FOR PROTEIN MISFOLDING DISEASE” (WREN THERAPEUTICS LIMITED, priority 2018, published 2021).

Experiment [1] has as its system Aβ3-42::GFPMuscular worms (CL2331). The experiment in a line: Automated motility assay in Aβ3-42::GFPMuscular worms. It is filed as in vivo, C. elegans. The settings on record: vs untreated worms. The protocol:
CL2331; dvIs37 [myo-3p::GFP::A-Beta (3-42)+rol-6(su1006)] (Aβ3-42::GFPMuscular worms). Maintain at 16C. Roller. Diffuse and aggregated GFP expression in body wall muscle. Low brood size. Sicker at higher temperatures. (C. D. Link et al., The β amyloid peptide can act as a modular aggregation domain. Neurobiol. Dis. 32, 420-425 (2008)); and
Briefly, Netoglitazone stocks (5 mM in 100% DMSO) were used at an appropriate concentration to seed 9-cm NGM plates. Plates were then placed in a laminar flow hood at room temperature (22° C.) for up to 4 hours to dry. […]
All C. elegans populations were cultured at 20° C. and developmentally synchronized from a 4 h egg-lay. At 64-72 h post-egg-lay (time zero), individuals were transferred to FUDR plates, and body movements were assessed over the times indicated. At different ages, the animals were washed off the plates with M9 buffer and spread over an OP-50 unseeded 9 cm plate, after which their movements were recorded at 20 fps using a recently developed microscopic procedure (M. Perni et al., Massively parallel C. elegans tracking provides multi-dimensional fingerprints for phenotypic discovery. J. Neurosci. Methods. 306, 57-67 (2018)) for 1 min. Up to 600 animals were counted in each experiment in duplicate unless stated otherwise. […]

Experiment [2] relates to Aβ1-42Neur worms (CL2355). Description: Chemotaxis assay in Aβ1-42Neur worms. It is filed as in vivo, C. elegans. The following applies: 5 μM; 5 days at 24° C.; day 6 of adulthood. The procedure:
Chemotaxis measurements were carried out as previously described (O. Margie, C. Palmer, I. Chin-Sang, C. elegans Chemotaxis Assay. J Vis Exp, e50069 (2013)) and as illustrated in FIG. 6C. Briefly, adult synchronized transgenic C. elegans CL2355 worms and wild-type healthy worms were incubated with or without 5 μM Netoglitazone for 5 days 24° C. At day 6 of adulthood the worms were then collected, washed with M9 buffer three times, and assayed in 9 cm screening plates (1.9% agar, 1 mM CaCl2), 1 mM MgSO4, and 25 mM phosphate buffer, pH 6.0) seeded with 50 μl of a 10× culture of Op50 Bacteria or sterile water, as attractant or test conditions, respectively and in combination with 1 μl of 1M Levamisole. Ca. 200 worms were placed in the central quadrant of the plate and incubated at 24° C. for 8 h, after which the chemotaxis index (CI) was scored. The CI was defined as follows (O. Margie et al (2013)):
(number of worms at the attractant locations−number of worms at the control locations)/total number of worms on the plate
Worms that were remaining in the central quadrant were excluded.

Another experiment has as its target T1, Aβ42 oligomers (Homo sapiens, UniProt P05067).
T1 construct: made in house; host or cells: E. coli BL21 Gold (DE3)
The experiment in a line: Ca2+ influx assay (lipid vesicle disruption). The settings on record: 2 μM Aβ42; 5-fold excess added at 0 h; measured at 2 h (half-time). It is filed as biochemical. The procedure: Single vesicles tethered to PLL-PEG coated borosilicate glass coverslides (VWR International, 22×22 mm, product number 63 1-0122) were placed on an oil immersion objective mounted on an inverted Olympus IX-71 microscope. Each coverslide was affixed at Frame-Seal incubation chambers and was incubated with 50 μL of HEPES buffer of pH 6.5. Just before the imaging, the HEPES buffer was replaced with 50 μL Ca^2+ containing buffer solution L-15. 16 (4×4) images of the coverslide were recorded under three different conditions (background, in the presence of Aβ42 and after addition of ionomycin (Cambridge Bioscience Ltd, Cambridge, UK), respectively). The distance between each field of view was set to 100 μm, and was automated (bean-shell script, Micromanager) to avoid any user bias. After each measurement the script allowed the stage (Prior H117, Rockland, Mass., USA) to move the field of view back to the start position such that identical fields of view could be acquired for the three different conditions. Images of the background were acquired in the presence of L15 buffer. For each field of view 50 images were taken with an exposure time of 50 ms. […] The recorded images were analysed using ImageJ to determine the fluorescence intensity of each spot under the three different conditions in the presence of an aggregation mixture incubated with and without Netoglitazone.

The next experiment concerns the target T2, Aβ42 (Homo sapiens, UniProt P05067).
T2 construct: made in house; host or cells: E. coli BL21 Gold (DE3)
Description: Aβ42 aggregation kinetics in human CSF. Type of experiment: biochemical. The settings on record: 66% CSF; 1.25 and 5-fold excess. The procedure: For the experiments of Aβ42 aggregation kinetics in human CSF, monomeric solutions of 3 μM Aβ42 were prepared similar to above with the only exception that the buffer was 20 mM Hepes, pH 8 supplemented with 1 mM CaCl2 at 150 mM NaCl. The obtained monomer was diluted with the […] in order to reach 66% final concentration of CSF, in which the effect of CSF is close to maximum. Aβ42 aggregation kinetics were performed in the absence and the presence of 1.25 and 5-fold excess of Netoglitazone.

Entries after “also recorded” stand apart in the source; their conditions may differ.

T1 sequence (P05067 671-713): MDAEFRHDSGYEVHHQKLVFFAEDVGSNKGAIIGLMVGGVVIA
T2 sequence (P05067 671-713): as above

As for `O=C1NC(=O)C(Cc2ccc3cc(OCc4ccccc4F)ccc3c2)S1` (stereo not shown) [Netoglitazone], the “Motility of Aβ3-42::GFPMuscular worms” value in experiment [1] is listed as “significantly improves the motility of Aβ3-42::GFPMuscular worms”. The “Chemotaxis index of Aβ1-42Neur worms” value in experiment [2] is recorded as “chemotaxis index was significantly improved; also recorded: significantly improves the (A) chemotaxis index”. The “Protection against lipid vesicle disruption by Aβ42 oligomers (Ca2+ influx)” value on Aβ42 oligomers was “protected against the neurotoxic species-induced vesicle disruption; also recorded: decreased substantially the toxic effect”. Also, at Aβ42, the “Delay of Aβ42 aggregation kinetics in 66% human CSF” value is recorded as “significantly delayed the aggregation kinetics in a concentration-dependent manner”.
